# Experimental data taken from patent US10233195B2, “Anti-fibrotic pyridinones” (InterMune, Inc., priority 2014, dated 2019).
# Assays:
# [1] = tested on: TGF-b induced Endothelin-1 production; test: ET-1 assay: inhibitory effect on TGF-b induced endothelin-1 production; assay type: cell-based; conditions: Homo sapiens, Fibroblast; fibroblasts, stimulant (TGFb, serum, LPA etc), ET-1 in media by ELISA, 4-parameter fit
# In short: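 Fibroblasts (primary human lung/dermal, HFL-1, 3T3) serum-starved 0-48 h, preincubated ~30 min with compound, then stimulated (TGFb, serum or LPA) for 16-48 h. Secreted ET-1 measured by ELISA; EC50 from 4-parameter logistic fit, with CC50 from ATPlite in the same wells.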
# [2] = tested on: Fibroblasts (primary human lung and dermal, HFL-1, 3T3 etc); test: Cell proliferation assay (BrdU incorporation); assay type: cell-based; conditions: HFL1, stimulant (LPA, TGFb, serum etc), 50% inhibition of the increase of BrdU incorporation
# Description: Assay of Inhibitory Effect on Cell Proliferation (BrdU Incorporation)
# Fibroblasts (primary human lung and dermal, HFL-1, 3T3 etc) were plated on a 96-well plate and serum starved for 24-48 hours. The media were then exchanged for media containing stimulants (LPA, TGFb, serum etc) and cultured further for 16-24 hours before BrdU addition. After culturing for another 8 hours, cells were washed with PBS and the amount of BrdU incorporated into the cells was assayed by absorbance at 450 nm using the Cell proliferation ELISA system (RPN250, Amersham LIFE SCIENCE). The difference between the amount of BrdU incorporated in the stimulant-added well and the amount of BrdU incorporated in the well containing no stimulant represented the amount of BrdU incorporation accelerated by stimulant. The increase of BrdU incorporation without the addition of test compounds was set as 100% and the concentration of compound with 50% inhibition in the increase of BrdU incorporation (IC50 value) was determined. The test compounds were added 0-30 min before stimulant addition.
# Compounds of some embodiments were prepared according to synthetic methods described herein and assay data obtained for IC50 for BrdU inhibition. The assay data obtained is presented in Table 3, in which A=less than 50 μM, B=greater than or equal to 50 μM and less than or equal to 200 μM; and C=greater than 200 μM.
Compound,EC50 [1] [µM],IC50 [2] [µM]
Cn1cc(-c2cn(-c3ccc(OC(F)(F)F)cc3)c(=O)c3nccnc23)cn1 [Compound 47],< 50,< 50
Cc1cn(C)c2c(=O)n(-c3ccc(OC(F)(F)F)cc3)cc(-c3ccc(F)cc3)c12 [Compound 49],< 50,< 50
Cn1cc(-c2cn(-c3ccc(OC(F)(F)F)cc3)c(=O)c3c2OCC(=O)N3Cc2ccccc2)cn1 [Compound 50],> 200,< 50
O=C1COc2c(-c3ccc(F)cc3)cn(-c3ccc(OC(F)(F)F)cc3)c(=O)c2N1Cc1ccccc1 [Compound 51],> 200,> 200
O=C1COc2c(-c3ccc(F)cc3)cn(-c3ccc(OC(F)(F)F)cc3)c(=O)c2N1 [Compound 52],> 200,> 200
CN1C(=O)COc2c(-c3ccc(F)cc3)cn(-c3ccc(OC(F)(F)F)cc3)c(=O)c21 [Compound 53],> 200,> 200
Cn1cnc2c(-c3ccc(F)cc3)cn(-c3ccc(OC(F)(F)F)cc3)c(=O)c21 [Compound 58],< 50,< 50
Cn1cc(-c2cn(-c3ccc(OC(F)(F)F)cc3)c(=O)c3ncn(C)c23)cn1 [Compound 59],< 50,< 50
CCn1ccc2c(-c3cnn(C)c3)cn(-c3ccc(OC(F)(F)F)cc3)c(=O)c21 [Compound 60],< 50,< 50
CCOc1ccc(-n2cc(Br)c3nccnc3c2=O)c(C)c1 [Compound 61],< 50,< 50
CCOc1ccc(-n2cc(-c3cnn(C)c3)c3nccnc3c2=O)c(C)c1 [Compound 63],< 50,< 50
O=C(c1ccccc1)n1cc(-c2ccc(=O)n(-c3ccccc3)c2)cn1 [Compound 68],> 200,> 200
CS(=O)(=O)n1cc(-c2ccc(=O)n(-c3ccccc3)c2)cn1 [Compound 71],> 200,> 200
CCOC(=O)n1cc(-c2ccc(=O)n(-c3ccccc3)c2)cn1 [Compound 73],< 50,> 200
CC(C)NC(=O)n1cc(-c2ccc(=O)n(-c3ccccc3)c2)cn1 [Compound 75],50 to 200,50 to 200
Cc1ccc(=O)n(CCc2ccccc2)c1 [Compound 80],50 to 200,> 200
O=c1cc(O)c(-c2ccc(F)cc2)cn1-c1ccc(OC(F)(F)F)cc1 [Compound 86],50 to 200,< 50
O=c1cc(Cl)c(-c2ccc(F)cc2)cn1-c1ccc(OC(F)(F)F)cc1 [Compound 87],< 50,< 50
O=C1CNCCN1CCOc1cc(=O)n(-c2ccc(OC(F)(F)F)cc2)cc1-c1ccc(F)cc1 [Compound 101],> 200,50 to 200
CCOc1ccc(-n2cc(-c3ccc(F)cc3)c(OC)cc2=O)c(C)c1 [Compound 119],< 50,< 50
COc1cc(=O)n(-c2ccc(OC(F)(F)F)cc2)cc1-c1cnn(C)c1 [Compound 120],< 50,< 50

Compound,EC50 [1] [µM],IC50 [2] [µM]
Cn1cc(-c2cn(-c3ccc(OC(F)(F)F)cc3)c(=O)cc2NCc2ccccc2)cn1 [Compound 123],< 50,< 50
CN(Cc1ccccc1)c1cc(=O)n(-c2ccc(OC(F)(F)F)cc2)cc1-c1cnn(C)c1 [Compound 126],< 50,< 50
Cn1cc(-c2cn(-c3ccc(OC(F)(F)F)cc3)c(=O)cc2NCc2c(F)cccc2F)cn1 [Compound 133],50 to 200,50 to 200
COc1ccc(CNc2cc(=O)n(-c3ccc(OC(F)(F)F)cc3)cc2-c2cnn(C)c2)cc1 [Compound 134],< 50,< 50
Cn1cc(-c2cn(-c3ccc(OC(F)(F)F)cc3)c(=O)cc2Oc2ccccc2)cn1 [Compound 153],< 50,< 50
CCOc1ccc(Oc2cc(=O)n(-c3ccc(OC(F)(F)F)cc3)cc2-c2cnn(C)c2)cc1C#N [Compound 157],< 50,> 200
Cn1cc(-c2cn(-c3ccc(OC(F)(F)F)cc3)c(=O)cc2NCc2cccnc2)cn1 [Compound 160],50 to 200,< 50
Cn1cc(-c2cn(-c3ccc(OC(F)(F)F)cc3)c(=O)cc2NCc2ccccn2)cn1 [Compound 161],< 50,< 50
CCOc1ccc(-n2cc(-c3cnn(C)c3)c(OC)cc2=O)c(C)c1 [Compound 162],< 50,< 50
CCOc1ccc(-n2cc(-c3ccc(F)cc3)c(C)cc2=O)c(C)c1 [Compound 175],50 to 200,< 50
COc1cc(-n2cc(-c3ccc(F)cc3)c(C)cc2=O)cc(OC)c1OC [Compound 180],50 to 200,< 50
Cc1cc(=O)n(-c2cccc3c2OCO3)cc1-c1ccc(F)cc1 [Compound 184],50 to 200,< 50
Cc1cc(=O)n(-c2cccc3c2OCCO3)cc1-c1ccc(F)cc1 [Compound 185],50 to 200,< 50
Cc1cc(=O)n(-c2cccc(NC(N)=O)c2)cc1-c1ccc(F)cc1 [Compound 188],< 50,< 50
Cc1cc(=O)n(-c2cccc(C(N)=O)c2)cc1-c1ccc(F)cc1 [Compound 189],> 200,> 200
Cc1cc(=O)n(-c2ccc(OC(F)(F)F)cc2)cc1-c1cccc(F)c1 [Compound 192],< 50,< 50
Cc1cc(=O)n(-c2ccc(OC(F)(F)F)cc2)cc1-c1ccc(F)c(Cl)c1 [Compound 195],< 50,< 50
Cc1cc(=O)n(-c2ccc(OC(F)(F)F)cc2)cc1-c1ccc(F)c(F)c1 [Compound 196],50 to 200,< 50
Cc1cc(=O)n(-c2ccc(OC(F)(F)F)cc2)cc1-c1ccc(Cl)c(F)c1 [Compound 198],50 to 200,< 50
Cc1cc(=O)n(-c2ccc(OC(F)(F)F)cc2)cc1-c1ccc2c(c1)OCCO2 [Compound 201],50 to 200,< 50
Cc1cc(=O)n(-c2ccc(OC(F)(F)F)cc2)cc1-c1ccc2c(c1)OCO2 [Compound 202],50 to 200,< 50

Compound,EC50 [1] [µM],IC50 [2] [µM]
Cc1cc(=O)n(-c2ccc(OC(F)(F)F)cc2)cc1-c1cccc2c1OCO2 [Compound 203],< 50,< 50
Cc1cc(=O)n(-c2ccc(OC(F)(F)F)cc2)cc1-c1cccc2c1OCCO2 [Compound 204],< 50,< 50
Cc1cc(=O)n(-c2ccc(OC(F)(F)F)cc2)cc1-c1ccc(-c2cncs2)cc1 [Compound 206],50 to 200,< 50
Cc1cc(=O)n(-c2ccc(OC(F)(F)F)cc2)cc1-c1cccc2c1OC(C)(C)O2 [Compound 207],50 to 200,< 50
Cc1cc(=O)n(-c2ccc(OC(F)(F)F)cc2)cc1-c1ccc2c(c1)OC(F)(F)O2 [Compound 208],50 to 200,50 to 200
Cc1cc(=O)n(-c2ccc(OC(F)(F)F)cc2)cc1-c1ccc2c(c1)NC(=O)CO2 [Compound 209],< 50,< 50
Cc1cc(=O)n(-c2ccc(OC(F)(F)F)cc2)cc1-c1ccc2c(c1)N(C)C(=O)CO2 [Compound 210],< 50,> 200
Cc1ccc(-n2cc(-c3ccc(F)cc3)c(C)cc2=O)cc1 [Compound 216],50 to 200,< 50
Cc1cc(=O)n(-c2ccc(OC(F)(F)F)cc2)cc1-c1cn[nH]c1 [Compound 218],< 50,< 50
CCOc1ccc(-n2cc(-c3cn[nH]c3)c(C)cc2=O)c(C)c1 [Compound 219],50 to 200,> 200
Cc1cc(=O)n(-c2ccc(Cl)cc2C)cc1-c1cnn(C)c1 [Compound 229],50 to 200,< 50
Cc1cc(=O)n(-c2ccc(OC(C)C)cc2C)cc1-c1cnn(C)c1 [Compound 234],> 200,> 200
Cc1cc(=O)n(-c2ccc(OC(F)(F)F)cc2)cc1-c1c(C)nn(C)c1C [Compound 237],50 to 200,< 50
Cc1cc(=O)n(-c2ccc(OC(F)(F)F)cc2)cc1-c1cn(C)nc1C(F)(F)F [Compound 238],50 to 200,< 50
Cc1cc(=O)n(-c2ccc(OC(F)(F)F)cc2)cc1-c1ccnnc1 [Compound 243],50 to 200,> 200
Cc1cc(=O)n(-c2ccc(OC(F)(F)F)cc2)cc1-c1ccc2scnc2c1 [Compound 251],< 50,< 50
Cc1cc(=O)n(-c2ccc(OC(F)(F)F)cc2)cc1-c1ccc2nccn2c1 [Compound 252],50 to 200,50 to 200
Cc1cc(=O)n(-c2ccc(OC(F)(F)F)cc2)cc1-c1ccc2ocnc2c1 [Compound 254],< 50,< 50
Cc1cc(=O)n(-c2ccc(OC(F)(F)F)cc2)cc1-c1ccc2ccn(C)c2c1 [Compound 258],< 50,< 50
